Values of other authors in patent publication US20260258363A1, “THERAPY” (PLASTICELL LTD, priority 2023, published 2026).

System: bone marrow derived CD34+ cells
Details: pre-treatment of cells in vitro

In the case of `NCCCNCCS` [WR1065], the “enhancement of formation of CFU-GEMM and BFU-E colonies” value is listed as at most 38 fold.
